Experimental findings from patent US20160278348A1, “METHOD FOR CONTROLLING WATER MOLDS IN AQUACULTURE WATER” (SUKEGAWA CHEMICALS CO., LTD., priority 2014, published 2016) are described below.

The test system of test [1] is water molds (genus Saprolegnia). Description: Experiment 1: water mold culture on hempseed cotyledons, sensitized time 30 min. The class given is cell-based. The settings on record: 100 ppm; sensitized 30 min.
Procedure: Based on “Testing Methods for City Water (2001 edition) by Japan Water Works Association, VIII Microbial Tests, 4.4.2.2 Water Mold Culture Method”, one hempseed cotyledon with water molds and 300 mL of sterilized tap water were placed in a sterilized 500-mL conical flask, and then 5 sterilized hempseed cotyledons were placed in the conical flask and cultured at ordinary temperature. The water molds (genus Saprolegnia) were collected from a hatchery in a fish farm for salmons and trout. […] The water in fee conical flask was diluted with sterilized tap water to prepare a zoospore suspension containing 10 to 12 zoospores of the water molds per 100 μL. It is to be noted that the tap water used was city water (pH 6.0) in Kobe.
The zoospore suspension was added to a sterilized tube (5 mL capacity) containing 3 hempseed cotyledons and stirred, and was then allowed to stand at room temperature for 3 days. After 3 days, 900 μL of a chemical solution was added to the sterilized tube, and the resulting mixture was stirred and then allowed to stand for 30 minutes for sensitization. […]
Based on the results of the observation, the minimum killing concentration of an active ingredient contained in the chemical solution was determined. […]
Test [2] shares this test system. Description: Experiment 2: water mold culture on hempseed cotyledons, sensitized time 60 min. Type of test: cell-based.

For the molecule `O=[N+]([O-])C(Br)(CO)CO` [bronopol], the Haze result in test [1] is given as “no effect”; in test [2] (100 ppm, sensitized 60 min), “no effect”; in test [2] (1200 ppm, sensitized 60 min) it was “could not be prevented”. Besides, the Zoospores result in test [1] is “effective”; in test [2] (100 ppm, sensitized 60 min), “effective”.

With sodium chlorite, the minimum killing concentration in test [2] (sensitized time 60 minutes, as chlorine dioxide) is 2.5 ppm.
